# Tests used:
# Akt pSer473 = experiment: Western blot, MDA-MB-231 cells, 24 hours; format: cell-based; details: 2.5, 5, 10 μM, versus Comparator 1, 2 and 4
# MDA-MB-231 cells [1] = experiment: Lysotracker Green staining, phase contrast microscopy; format: cell-based; details: 5 μM, 2 hours
# Description: MDA-MB-231 cells were treated with Compound 1 (5 μM) for 2 hours and stained with Lysotracker Green and imaged using phase contrast microscopy to examine the effect of Compound 1 treatment on vacuolization.
# MDA-MB-231 cells [2] = experiment: Annexin V/PI staining followed by FACS, 24 hours; format: cell-based
# Description: To determine the effect of the different treatment conditions on cell death, Annexin V/PI staining was performed.
# MDA-MB-231 cells [3] = experiment: MTT assay, 24 hours; format: cell-based
# B2M = experiment: qPCR of mRNA expression, PyMT cells; format: cell-based, mouse; details: 24 and 48 hours
# PyMT cells [4] = experiment: MTT cell viability; format: cell-based, mouse; details: 24, 48 and 72 hours; Compound 1 2.5, 5, 10 μM; Comparator 1 5 μM
# PyMT cells [5] = experiment: Growth and recovery, 6 days treatment and 4 days recovery, cell counts; format: cell-based, mouse; details: 6 days treatment, counted on days 0, 3, 6, 10
# Description: Following 6 days of treatment, the drug treatments were stopped and the cells allowed to recover for 4 days. Cell numbers were counted on days 0, 3, 6, and 10, and the results plotted.
# ZCRB1 = target: T1, ZCRB1 (Homo sapiens, UniProt Q8TBF4); experiment: CETSA-MS, MDA-MB-231 cell lysates; format: binding; details: 2 μM and 20 μM
# T1 construct: endogenous in cells; host or cells: MDA-MB-231
# Description: (§1) Following treatment, cell lysates were thermally treated in a thermal gradient profile across a temperature range. Following the thermal shift, cell lysates were spun by centrifuge to pellet aggregate protein and the supernatant withdrawn. The supernatant was then denatured in buffer and heated to denature, reduce, and alkylate the supernatant proteins. Following heating and cooling to room temperature, cold acetone was added to the supernatant samples and proteins precipitated.
# (§2) The intact cell protein samples and lysate protein samples were then digested and labeled for mass spectrometry analysis according to the manufacturer's recommended protocols. Digested and labeled protein samples were analyzed by mass spectrometry proteomic analysis and the resulting protein targets were analyzed and plotted.
# BMP2K = target: T2, BMP2K (Homo sapiens, UniProt Q9NSY1); experiment: CETSA-MS, MDA-MB-231 cell lysates; format: binding; details: 2 μM and 20 μM
# T2 construct: endogenous in cells; host or cells: MDA-MB-231
# Description: as §1, §2
# TBK1 = target: T3, TBK1 (Homo sapiens, UniProt Q9UHD2); experiment: CETSA-MS, MDA-MB-231 cell lysates; format: binding; details: 2 μM and 20 μM
# T3 construct: endogenous in cells; host or cells: MDA-MB-231
# Description: as §1, §2
# STK17B = target: T4, STK17B (Homo sapiens, UniProt O94768); experiment: CETSA-MS, MDA-MB-231 cell lysates; format: binding; details: 2 μM and 20 μM
# T4 construct: endogenous in cells; host or cells: MDA-MB-231
# Description: as §1, §2
# UVSSA = target: T5, UVSSA (Homo sapiens, UniProt Q2YD98); experiment: CETSA-MS, MDA-MB-231 cell lysates; format: binding; details: 2 μM and 20 μM
# T5 construct: endogenous in cells; host or cells: MDA-MB-231
# Description: as §1, §2
# MAPKAPK5 = target: T6, MAPKAPK5 (Homo sapiens, UniProt Q8IW41); experiment: CETSA-MS, MDA-MB-231 cell lysates; format: binding; details: 2 μM and 20 μM
# T6 construct: endogenous in cells; host or cells: MDA-MB-231
# Description: as §1, §2
# CDK5 = target: T7, CDK5 (Homo sapiens, UniProt Q00535); experiment: CETSA-MS, MDA-MB-231 cell lysates; format: binding; details: 2 μM and 20 μM
# T7 construct: endogenous in cells; host or cells: MDA-MB-231
# Description: as §1, §2
# AAK1 = target: T8, AAK1 (Homo sapiens, UniProt Q2M2I8); experiment: CETSA-MS, MDA-MB-231 cell lysates; format: binding; details: 2 μM and 20 μM
# T8 construct: endogenous in cells; host or cells: MDA-MB-231
# Description: as §1, §2
# LIMK1 = target: T9, LIMK1 (Homo sapiens, UniProt P53667); experiment: CETSA-MS, MDA-MB-231 cell lysates; format: binding; details: 2 μM and 20 μM
# T9 construct: endogenous in cells; host or cells: MDA-MB-231
# Description: as §1, §2
# FKBP8 = target: T10, FKBP8 (Homo sapiens, UniProt Q14318); experiment: CETSA-MS, MDA-MB-231 cell lysates; format: binding; details: 2 μM and 20 μM
# T10 construct: endogenous in cells; host or cells: MDA-MB-231
# Description: as §1, §2
# AURKA = target: T11, AURKA (Homo sapiens, UniProt O14965); experiment: CETSA-MS, MDA-MB-231 cell lysates; format: binding; details: 2 μM and 20 μM
# T11 construct: endogenous in cells; host or cells: MDA-MB-231
# Description: as §1, §2
# TFEB = target: T12, TFEB (Homo sapiens, UniProt P19484); experiment: CETSA-MS, MDA-MB-231 cell lysates; format: binding; details: 2 μM and 20 μM
# T12 construct: endogenous in cells; host or cells: MDA-MB-231
# Description: as §1, §2
# CDC42BPB = target: T13, CDC42BPB (Homo sapiens, UniProt Q9Y5S2); experiment: CETSA-MS, MDA-MB-231 cell lysates; format: binding; details: 2 μM and 20 μM
# T13 construct: endogenous in cells; host or cells: MDA-MB-231
# Description: as §1, §2
# GSK3A = target: T14, GSK3A (Homo sapiens, UniProt P49840); experiment: CETSA-MS, MDA-MB-231 cell lysates; format: binding; details: 2 μM and 20 μM
# T14 construct: endogenous in cells; host or cells: MDA-MB-231
# Description: as §1, §2
# ZNF260 = target: T15, ZNF260 (Homo sapiens, UniProt Q3ZCT1); experiment: CETSA-MS, MDA-MB-231 cell lysates; format: binding; details: 2 μM and 20 μM
# T15 construct: endogenous in cells; host or cells: MDA-MB-231
# Description: as §1, §2
# BUB1 = BUB1 (Homo sapiens, UniProt O43683); experiment: CETSA-MS, MDA-MB-231 cell lysates; format: binding; details: 2 μM and 20 μM
# Description: as §1, §2
# DGCR6 = target: T16, DGCR6 (Homo sapiens, UniProt Q14129); experiment: CETSA-MS, MDA-MB-231 cell lysates; format: binding; details: 2 μM and 20 μM
# T16 construct: endogenous in cells; host or cells: MDA-MB-231
# Description: as §1, §2
# CHEK1 = target: T17, CHEK1 (Homo sapiens, UniProt O14757); experiment: CETSA-MS, MDA-MB-231 cell lysates; format: binding; details: 2 μM and 20 μM
# T17 construct: endogenous in cells; host or cells: MDA-MB-231
# T17 sequence (O14757 1-476): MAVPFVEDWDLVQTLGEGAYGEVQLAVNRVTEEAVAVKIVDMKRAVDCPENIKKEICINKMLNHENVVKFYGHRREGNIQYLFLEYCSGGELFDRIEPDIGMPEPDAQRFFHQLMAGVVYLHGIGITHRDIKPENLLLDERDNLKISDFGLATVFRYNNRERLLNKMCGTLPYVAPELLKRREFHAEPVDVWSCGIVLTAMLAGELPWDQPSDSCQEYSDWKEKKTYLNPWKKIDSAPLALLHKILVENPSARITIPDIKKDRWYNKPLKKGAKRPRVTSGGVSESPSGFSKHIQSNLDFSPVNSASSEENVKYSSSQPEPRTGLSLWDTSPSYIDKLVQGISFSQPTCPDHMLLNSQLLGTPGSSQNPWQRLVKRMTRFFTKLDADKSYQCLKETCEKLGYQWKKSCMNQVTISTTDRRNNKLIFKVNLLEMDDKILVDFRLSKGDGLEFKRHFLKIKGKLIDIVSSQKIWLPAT
# Description: as §1, §2
# MAP11 = target: T18, MAP11 (Homo sapiens, UniProt Q8WVR3); experiment: CETSA-MS, MDA-MB-231 cell lysates; format: binding; details: 2 μM and 20 μM
# T18 construct: endogenous in cells; host or cells: MDA-MB-231
# Description: as §1, §2
# STK17A = target: T19, STK17A (Homo sapiens, UniProt Q9UEE5); experiment: CETSA-MS, MDA-MB-231 cell lysates; format: binding; details: 2 μM and 20 μM
# T19 construct: endogenous in cells; host or cells: MDA-MB-231
# Description: as §1, §2
# CPQ = target: T20, CPQ (Homo sapiens, UniProt Q9Y646); experiment: CETSA-MS, MDA-MB-231 cell lysates; format: binding; details: 2 μM and 20 μM
# T20 construct: endogenous in cells; host or cells: MDA-MB-231
# Description: as §1, §2
# Hs578T spheroids = experiment: Spheroid imaging (Hoechst, F-actin); format: cell-based; details: 5 μM, compared to DMSO, Comparator 1 and Comparator 2 (FIG. 18)
# T20 sequence (Q9Y646 45-472): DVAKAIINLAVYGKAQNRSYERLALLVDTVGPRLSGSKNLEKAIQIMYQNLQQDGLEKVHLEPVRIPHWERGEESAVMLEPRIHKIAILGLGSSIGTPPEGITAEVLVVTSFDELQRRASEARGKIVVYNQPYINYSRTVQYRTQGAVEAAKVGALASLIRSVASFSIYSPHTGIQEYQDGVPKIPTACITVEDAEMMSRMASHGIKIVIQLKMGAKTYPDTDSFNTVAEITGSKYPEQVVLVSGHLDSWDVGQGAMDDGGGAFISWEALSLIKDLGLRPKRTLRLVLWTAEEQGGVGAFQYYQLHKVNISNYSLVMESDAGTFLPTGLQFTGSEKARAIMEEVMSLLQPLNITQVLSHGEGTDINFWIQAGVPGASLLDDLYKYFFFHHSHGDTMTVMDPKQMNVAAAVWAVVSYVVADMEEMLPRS
# T14 sequence (P49840 whole entry): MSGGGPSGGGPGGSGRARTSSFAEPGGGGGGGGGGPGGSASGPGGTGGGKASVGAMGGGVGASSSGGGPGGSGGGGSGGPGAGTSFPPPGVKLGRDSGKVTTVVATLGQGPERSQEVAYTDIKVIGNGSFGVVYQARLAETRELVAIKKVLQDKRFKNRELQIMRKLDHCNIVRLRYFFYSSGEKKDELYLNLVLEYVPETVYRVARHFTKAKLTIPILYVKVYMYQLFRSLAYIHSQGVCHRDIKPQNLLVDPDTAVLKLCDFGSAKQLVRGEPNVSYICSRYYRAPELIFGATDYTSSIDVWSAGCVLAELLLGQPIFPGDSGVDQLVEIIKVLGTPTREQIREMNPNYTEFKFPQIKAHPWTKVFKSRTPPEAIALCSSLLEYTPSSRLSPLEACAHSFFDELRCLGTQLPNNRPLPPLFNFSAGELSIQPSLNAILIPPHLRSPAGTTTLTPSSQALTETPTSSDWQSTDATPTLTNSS
# T6 sequence (Q8IW41 whole entry): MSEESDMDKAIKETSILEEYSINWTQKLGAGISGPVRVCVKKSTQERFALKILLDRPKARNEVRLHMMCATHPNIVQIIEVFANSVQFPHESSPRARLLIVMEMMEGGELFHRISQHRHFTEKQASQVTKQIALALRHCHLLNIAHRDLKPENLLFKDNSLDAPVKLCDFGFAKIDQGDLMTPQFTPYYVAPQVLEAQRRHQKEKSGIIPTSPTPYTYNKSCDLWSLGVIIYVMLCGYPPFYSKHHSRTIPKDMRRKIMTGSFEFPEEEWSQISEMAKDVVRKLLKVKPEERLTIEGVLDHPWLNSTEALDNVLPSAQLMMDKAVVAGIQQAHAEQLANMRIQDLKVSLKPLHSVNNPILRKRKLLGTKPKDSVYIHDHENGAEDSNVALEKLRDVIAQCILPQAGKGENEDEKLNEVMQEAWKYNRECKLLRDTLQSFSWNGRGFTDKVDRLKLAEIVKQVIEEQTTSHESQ
# T11 sequence (O14965 whole entry): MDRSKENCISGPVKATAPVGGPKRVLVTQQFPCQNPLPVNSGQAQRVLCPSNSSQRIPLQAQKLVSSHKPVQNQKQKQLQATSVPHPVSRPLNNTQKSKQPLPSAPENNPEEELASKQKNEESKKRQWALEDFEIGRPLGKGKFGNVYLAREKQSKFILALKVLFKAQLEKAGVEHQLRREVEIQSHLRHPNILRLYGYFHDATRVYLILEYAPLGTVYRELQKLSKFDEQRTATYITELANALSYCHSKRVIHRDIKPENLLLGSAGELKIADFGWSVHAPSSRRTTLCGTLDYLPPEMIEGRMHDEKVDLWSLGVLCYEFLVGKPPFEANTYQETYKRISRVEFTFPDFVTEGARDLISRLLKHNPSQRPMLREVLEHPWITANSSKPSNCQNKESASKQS
# T2 sequence (Q9NSY1 whole entry): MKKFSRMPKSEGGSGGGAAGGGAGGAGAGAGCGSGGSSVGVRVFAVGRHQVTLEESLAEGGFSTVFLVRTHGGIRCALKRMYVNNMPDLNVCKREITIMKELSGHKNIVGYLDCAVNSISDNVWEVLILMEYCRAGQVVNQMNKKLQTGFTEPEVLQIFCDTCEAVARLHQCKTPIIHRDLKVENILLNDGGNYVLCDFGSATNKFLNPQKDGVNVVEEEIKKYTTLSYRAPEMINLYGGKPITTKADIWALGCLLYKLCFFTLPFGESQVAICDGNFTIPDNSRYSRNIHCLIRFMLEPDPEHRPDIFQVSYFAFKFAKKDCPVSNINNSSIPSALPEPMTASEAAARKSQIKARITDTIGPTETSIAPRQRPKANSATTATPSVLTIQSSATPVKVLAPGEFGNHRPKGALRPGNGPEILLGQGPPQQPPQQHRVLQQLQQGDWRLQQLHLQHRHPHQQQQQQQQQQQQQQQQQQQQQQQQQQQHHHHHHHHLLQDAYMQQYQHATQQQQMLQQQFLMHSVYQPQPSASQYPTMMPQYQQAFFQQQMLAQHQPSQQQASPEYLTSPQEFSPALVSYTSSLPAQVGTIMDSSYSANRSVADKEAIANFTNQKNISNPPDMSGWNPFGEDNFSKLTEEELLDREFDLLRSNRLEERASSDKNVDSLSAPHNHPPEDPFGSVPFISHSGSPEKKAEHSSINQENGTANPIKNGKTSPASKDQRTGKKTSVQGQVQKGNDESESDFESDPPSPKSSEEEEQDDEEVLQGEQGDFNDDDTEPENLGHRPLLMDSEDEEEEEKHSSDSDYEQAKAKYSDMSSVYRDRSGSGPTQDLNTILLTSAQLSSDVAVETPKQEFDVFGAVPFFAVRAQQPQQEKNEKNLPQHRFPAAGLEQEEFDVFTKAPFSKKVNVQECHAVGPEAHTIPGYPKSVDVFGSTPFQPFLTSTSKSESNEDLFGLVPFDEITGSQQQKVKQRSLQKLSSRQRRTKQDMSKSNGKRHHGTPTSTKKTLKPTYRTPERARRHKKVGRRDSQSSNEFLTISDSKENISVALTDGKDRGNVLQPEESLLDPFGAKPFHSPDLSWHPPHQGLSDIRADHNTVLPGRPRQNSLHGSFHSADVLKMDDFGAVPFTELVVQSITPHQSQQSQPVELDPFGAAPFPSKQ
# T10 sequence (Q14318 whole entry): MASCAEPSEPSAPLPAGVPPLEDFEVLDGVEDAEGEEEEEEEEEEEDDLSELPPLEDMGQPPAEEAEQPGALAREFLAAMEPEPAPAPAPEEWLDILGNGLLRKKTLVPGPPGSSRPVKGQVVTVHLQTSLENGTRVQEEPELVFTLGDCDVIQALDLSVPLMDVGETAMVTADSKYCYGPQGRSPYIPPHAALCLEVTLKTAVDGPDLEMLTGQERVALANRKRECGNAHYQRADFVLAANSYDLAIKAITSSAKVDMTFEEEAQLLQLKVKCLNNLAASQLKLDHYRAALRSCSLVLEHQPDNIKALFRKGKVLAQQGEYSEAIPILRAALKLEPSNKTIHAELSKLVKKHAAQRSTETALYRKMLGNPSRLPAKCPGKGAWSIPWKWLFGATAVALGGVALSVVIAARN
# T13 sequence (Q9Y5S2 whole entry): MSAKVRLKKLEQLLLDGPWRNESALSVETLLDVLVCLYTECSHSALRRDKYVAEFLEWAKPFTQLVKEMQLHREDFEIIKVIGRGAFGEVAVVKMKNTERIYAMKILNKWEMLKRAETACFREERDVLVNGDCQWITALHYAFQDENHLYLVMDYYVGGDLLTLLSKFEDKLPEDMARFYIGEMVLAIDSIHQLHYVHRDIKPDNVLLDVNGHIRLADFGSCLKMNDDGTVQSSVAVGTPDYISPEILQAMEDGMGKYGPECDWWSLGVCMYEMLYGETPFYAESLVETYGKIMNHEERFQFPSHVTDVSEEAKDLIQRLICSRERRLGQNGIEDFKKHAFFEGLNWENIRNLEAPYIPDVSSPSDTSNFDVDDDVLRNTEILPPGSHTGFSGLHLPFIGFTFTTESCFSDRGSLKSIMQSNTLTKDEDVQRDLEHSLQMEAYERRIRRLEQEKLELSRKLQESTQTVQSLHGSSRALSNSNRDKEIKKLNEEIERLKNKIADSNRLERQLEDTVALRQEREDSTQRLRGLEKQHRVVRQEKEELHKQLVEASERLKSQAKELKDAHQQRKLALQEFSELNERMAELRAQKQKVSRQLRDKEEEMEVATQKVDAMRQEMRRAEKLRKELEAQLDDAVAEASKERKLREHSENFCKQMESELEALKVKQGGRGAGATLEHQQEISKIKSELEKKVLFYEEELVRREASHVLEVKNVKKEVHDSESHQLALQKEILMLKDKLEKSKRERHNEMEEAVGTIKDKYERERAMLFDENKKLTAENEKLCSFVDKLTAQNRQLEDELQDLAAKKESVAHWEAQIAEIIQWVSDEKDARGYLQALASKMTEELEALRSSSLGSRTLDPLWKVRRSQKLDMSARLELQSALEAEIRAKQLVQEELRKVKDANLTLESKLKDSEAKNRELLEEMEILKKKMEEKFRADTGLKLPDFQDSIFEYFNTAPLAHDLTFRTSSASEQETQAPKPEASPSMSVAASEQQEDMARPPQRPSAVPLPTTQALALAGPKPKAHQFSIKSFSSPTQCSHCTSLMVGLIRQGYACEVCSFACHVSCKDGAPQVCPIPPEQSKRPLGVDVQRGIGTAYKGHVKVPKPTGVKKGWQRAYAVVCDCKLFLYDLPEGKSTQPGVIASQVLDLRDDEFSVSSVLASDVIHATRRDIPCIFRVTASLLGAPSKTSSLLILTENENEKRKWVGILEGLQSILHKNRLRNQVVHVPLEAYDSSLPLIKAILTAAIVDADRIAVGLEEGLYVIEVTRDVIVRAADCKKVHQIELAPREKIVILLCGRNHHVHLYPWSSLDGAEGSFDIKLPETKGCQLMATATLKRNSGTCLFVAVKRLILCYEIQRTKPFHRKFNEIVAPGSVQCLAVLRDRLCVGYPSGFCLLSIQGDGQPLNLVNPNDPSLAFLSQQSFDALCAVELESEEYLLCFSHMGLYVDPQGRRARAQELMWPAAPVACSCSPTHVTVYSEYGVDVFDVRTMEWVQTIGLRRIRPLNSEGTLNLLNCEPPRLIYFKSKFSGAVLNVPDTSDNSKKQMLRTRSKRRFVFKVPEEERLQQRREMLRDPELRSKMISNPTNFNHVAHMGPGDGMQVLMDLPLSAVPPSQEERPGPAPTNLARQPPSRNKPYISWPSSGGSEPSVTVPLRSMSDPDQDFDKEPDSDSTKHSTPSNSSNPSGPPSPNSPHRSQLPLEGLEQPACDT
compound,measurement,setting,value
"CN1CCN(c2ccc(Nc3ncc4cc(C#N)c(=O)n(C5CCCC5)c4n3)cc2)CC1 [Compound 1, 8-cyclopentyl-2-((4-(4-methylpiperazin-1-yl)phenyl)amino)-7-oxo-7,8-dihydropyrido[2,3-d]pyrimidine-6-carbonitrile]",Akt pSer473 levels,Akt pSer473,decreasing
same,"vacuolization, Lysotracker Green staining",MDA-MB-231 cells [1],extensive cytoplasmic vacuolization that colocalized with Lysotracker green staining
same,cell death (Annexin V/PI),"MDA-MB-231 cells [2]; Compound 1, Comparator 1, 2 5 μM, Comparator 4 10 μM",~40%
same,"effect of zVAD-FMK on cell death, Annexin V/PI staining",MDA-MB-231 cells [2]; zVAD-FMK 20 μM (FIG. 24),unaffected by zVAD-FMK treatment
same,cell viability (MTT),"MDA-MB-231 cells [3]; 2.5 μM, 5 μM and 10 μM, compared to Comparator 1 and Comparator 2",decreases cell viability to a greater extent
same,"effect of zVAD-FMK on cell death, MTT assay",MDA-MB-231 cells [3]; zVAD-FMK 20 μM (FIG. 25),unaffected by zVAD-FMK treatment
same,B2M mRNA levels,B2M,to a greater extent than Comparator 1 did
same,cell death (MTT cell viability),PyMT cells [4],increased cell death relative to DMSO
same,"PyMT cell numbers, treatment and recovery phase",PyMT cells [5],small decrease in cell number at day 3 that then increased throughout the rest of the experiment
same,Group (CETSA-MS thermal shift),ZCRB1,Stabilization
same,Group (CETSA-MS thermal shift),BMP2K,Stabilization
same,Group (CETSA-MS thermal shift),TBK1,Destabilization
same,Group (CETSA-MS thermal shift),STK17B,Stabilization
same,Group (CETSA-MS thermal shift),UVSSA,Destabilization
same,Group (CETSA-MS thermal shift),MAPKAPK5,Destabilization
same,Group (CETSA-MS thermal shift),CDK5,Stabilization
same,Group (CETSA-MS thermal shift),AAK1,Stabilization
same,Group (CETSA-MS thermal shift),LIMK1,Stabilization
same,Group (CETSA-MS thermal shift),FKBP8,Stabilization
same,Group (CETSA-MS thermal shift),AURKA,Stabilization
same,Group (CETSA-MS thermal shift),TFEB,Stabilization
same,Group (CETSA-MS thermal shift),CDC42BPB,Destabilization
same,Group (CETSA-MS thermal shift),GSK3A,Stabilization
same,Group (CETSA-MS thermal shift),ZNF260,Destabilization
same,Group (CETSA-MS thermal shift),BUB1,Stabilization
same,Group (CETSA-MS thermal shift),DGCR6,Destabilization
same,Group (CETSA-MS thermal shift),CHEK1,Destabilization
same,Group (CETSA-MS thermal shift),MAP11,Stabilization
same,Group (CETSA-MS thermal shift),STK17A,Stabilization
same,Group (CETSA-MS thermal shift),CPQ,Stabilization
same,spheroid size,Hs578T spheroids,small decrease in spheroid size

# Reference: US20260183295A1, “METHODS AND COMPOSITIONS FOR TREATING CANCER” (Onconova Therapeutics, Inc., priority 2022, published 2026)
